# From patent US12421257B2, “Compositions and methods for inhibiting group II intron RNA” (YALE UNIVERSITY, priority 2018, dated 2025)
# Entries after “also recorded” stand apart in the source; their conditions may differ.
# Assays:
# [1] = system: C. parapsilosis; assay: MIC determination against C. parapsilosis; format: cell-based, Candida parapsilosis; conditions: Lodderomyces parapsilosis; RPMI-1640, 35° C. or 37° C., turbidity after 24 and 48 hours
# Description: Minimal inhibitory concentrations (MICs) for C. parapsilosis were determined in a final volume of 100 μl. Fresh stock solutions of control antifungal drugs (Amphotericin B and Itraconazole) and of test compounds were prepared at 3.2 mg/ml and at 12.8 mg/ml respectively in DMSO. After placing the stock in the first well, solutions of test compounds and antifungal controls were serially diluted 1:2 with DMSO into the first […] successive wells of a 12-well row on a 96-well plate (as described above). After dilution, 2.5 μl from each of these 10 wells were transferred onto a separate 96-well plate and diluted with 122.5 μl of RPMI-1640 medium (Sigma). Wells 11 and 12 contained 2.5 μl DMSO and 122.5 μl of RPMI-1640 as a positive growth control (no compound) and sterility control (no inoculum added). A 50 μl volume was taken from each of the RPMI dilutions (wells 1-12) and transferred to the wells of a third 96-well plate (assay plate), where they were mixed with an equal volume (50 μl) of freshly prepared inoculum of C. parapsilosis in RPMI-1640 medium, set at a density to provide the 0.5×10^3 to 2.5×10^3 colony forming units per 1 mL (except for the sterility control). Sterility control was mixed with 50 μl of sterile medium.
# The final concentration range of the assay was 0.25-128 μg/ml for test compounds and 0.0625-32 μg/ml for Amphotericin B and Itraconazole. The final concentration of DMSO was 1%. The assay plate was incubated at 35° C. or 37° C. and visually analyzed for turbidity after 24 and 48 hours of incubation. The lowest compound concentration at which no growth was apparent is reported as the MIC. All experiments were performed in triplicate.
# [2] = system: HEK-293T cells; assay: Cytotoxicity in HEK-293T cells (Cell Titer Glo); format: cell-based, human; conditions: Homo sapiens, cytotoxicity, 24 hours with compound, read-out: IC50 HEK-293
# Description: HEK-293T cells were cultured in Dulbecco's Modified Eagle's Medium (DMEM) (Gibco) supplemented with 10% Fetal Bovine Serum (FBS, Gibco) and 100 U/ml of Penicillin-Streptomycin (Gibco) at 37° C. and 5% CO2. For the cytotoxicity experiments, cells were aliquoted into black 96-well plates with a clear bottom (Corning 3603) at a concentration of 10,000 cells per well. The cells were grown at 37° C., 5% CO2 for 5-6 hours, then the medium was replaced with the same medium without FBS and cells were grown at 37° C., 5% CO2 for 24 hours. Freshly prepared stock solutions of test compounds (12.8 mg/ml in DMSO) were serially diluted 1:2 with DMSO into the first 11 successive wells of a 12-well row on a 96-well plate as described above. Well 12 was used as a growth control (no compound). […] After incubation, cell viability was determined using the luminescent Cell Titer Glo cell viability assay (Promega), in which 100 μl of the assay reagent was added to each well of the assay plate. After gentle shaking for 7-10 minutes, the plates were analyzed on a Synergy H1 plate reader (BioTek). Luminescence was plotted against the compound concentration and IC50 values were determined by fitting the data to a 4-parameter logistic function c+(d−c)/(1+(x/a)^b), where a is the IC50, b is the slope parameter, c is the minimum response and d is the maximum response. Experiments were replicated to ensure reproducibility.
# [3] = biological target: ai5γ group II intron; assay: Radioanalytic self-splicing assay of SE RNA (Ki); format: biochemical, Saccharomyces cerevisiae; conditions: 8 mM MgCl2, 100 mM KCl, pH 7.5, 30° C.
# Description: Internally labeled SE RNA (2 nM) was incubated with various concentrations of inhibitor compound under near-physiological conditions (in 50 mM MOPS, pH 7.5, 8 mM MgCl2, 100 mM KCl) at 30° C. Aliquots at different time points were quenched and analyzed on 5% denaturing polyacrylamide gel as previously described (Daniels et al., 1996, Journal of molecular biology, 256:31-49). Data were fit to a single-exponential equation to determine the first order rate constants (kobs). The latter were then plotted against the concentration of the inhibitor and fit to the equation for non-competitive inhibition to determine Ki values: kobs=kmax/(1+[I]/Ki), where kobs and kmax are the first order rate constants measured in the presence and in the absence of the inhibitor, respectively, [I] is the concentration of the inhibitor and Ki is the inhibition constant. Experiments were performed four times for API-014, three times for APY-090, Intronistat A, and Intronistat B and twice for the remaining compounds to ensure reproducibility. Data represent average±s.e.m.
# [4] = system: ai5γ group II intron (D135 ribozyme); assay: Fluorescent D135 ribozyme cleavage assay (IC50); format: biochemical, Saccharomyces cerevisiae; conditions: for IC50: D135 ribozyme cleavage of substrate 17/2 DL, 100 mM MgCl2, 500 mM KCl, 37° C., 10 minutes; for In vitro inhibitory activity, SAR statement (in words): relative to parent scaffold
# Description: The D135 ribozyme (Su et al., 2005, Nucleic Acids Res, 33:6674-6687), fluorescently labeled oligo substrate 17/2 DL (FIG. 1A-FIG. 1D) (both at 20 nM final concentrations in 50 mM MOPS, pH 7.0, 100 mM MgCl2, 0.5M KCl), and the test compounds (final concentration of 10 μM in 50 mM MOPS, pH 7.0, 100 mM MgCl2, 0.5M KCl) were aliquoted onto black non-binding 384-well plates (Corning 3757) using the multidrop combi (ThermoFisherScientific) and pintool (V & P Scientific). The reaction mixtures were incubated at 37° C. for 45 minutes, then the reaction was quenched with 100 mM EDTA and fluorescence intensity was analyzed on a Tecan Infinite multimode plate reader (λex 520 nm, λem 560 nm, 5 nm bandwidth). Data were normalized to untreated wells and wells lacking the D135 ribozyme, and percent of inhibition was calculated using ActivityBase (IDBS). The Z′-factor was calculated as described (Zhang et al., 1999, J Biomol Screen, 4:67-73): Z′=1−3×(σp+σn)/|μp−μn|, • where μp and σn are mean value and standard deviation for the positive control (substrate only), and where μn and σn are mean value and standard deviation for the negative control (no compound). The average Z′-factor from the screen was 0.83±0.03. IC50 Measurement for the Small Molecule Inhibition of the D135 Ribozyme Cleavage Reaction.
# Black 96-well plates (Corning 3695) were filled with 50 μl of solution containing 20 nM D135 ribozyme, 20 nM double-labeled substrate 17/2 DL and small molecule inhibitor in 50 mM MOPS, pH 7.0, 100 mM MgCl2 and 500 mM KCl. Small molecule inhibitors were tested at 19 different concentrations ranging from 5 nM to 1 mM. Plates were incubated at 37° C. for 10 minutes, then reaction mixtures were quenched with 100 mM EDTA and analyzed on the Synergy H1 plate reader (BioTek). Each experiment was performed in triplicate. Data were fit to a 4-parameter logistic function c+(d−c)/(1+(x/a)^b), where a is the IC50, b is the slope parameter, c is the minimum response and d is the maximum response. Data are reported as average±s.e.m
SMILES,MIC [1] [µg/mL],Ki [3] [µM],IC50 [4] [µM],IC50 [2] [µg/mL],"In vitro inhibitory activity, SAR statement (in words) [4]"
O=C1/C(=C/c2cc(F)c(O)c(F)c2)Oc2cc(O)cc(O)c21 [APY-010],> 128,140,–,0.55,–
COc1cc(/C=N/NC(=O)c2cc(O)c(O)c(O)c2)cc(O)c1O [APY-038],8,1.1,1.3,15.9,–
O=C(CCc1ccc2ccccc2c1)c1cc(O)c(O)c(O)c1 [APY-076],16,5.4,8,7,–
"O=C(c1cc(O)c(O)c(O)c1)c1cc2cc(Cl)cc(Cl)c2o1 [APY-083, 5-[(5,7-Dichloro-1-benzofuran-2-yl)carbonyl]benzene-1,2,3-triol]",8,0.9 ± 0.1,3.3 ± 0.3,0.5 ± 0.1,without significant loss of function
O=C(c1cc(O)c(O)c(O)c1)c1cc2cc(F)ccc2o1 [APY-070],32,1,4.2,> 128,–
"O=C1/C(=C/c2ccc(O)c(O)c2)Oc2cc(O)cc(O)c21 [APY-007, (Z)-2-(3,4-Dihydroxybenzylidene)-4,6-dihydroxybenzofuran-3(2H)-one]",> 128,156 ± 34,> 100,> 128,nearly complete loss of activity; also recorded: inactivated both in vitro and in vivo
O=C(N/N=C/c1ccccc1O)c1cc(O)c(O)c(O)c1 [APY-021],32,9.4,14,–,–
C[C@H](NC(=O)c1cc(O)c(O)c(O)c1)c1cccc2ccccc12 [APY-079],32,32,20,4.6,–
COc1ccc(CCNC(=O)c2cc(O)c(O)c(O)c2)cc1OC [APY-078],64,16,27,> 128,–
"COc1ccc(CNC(=O)c2cc(O)c(O)c(O)c2)cc1OC [APY-077, N-[(3,4-Dimethoxyphenyl)methyl]-3,4,5-trihydroxybenzamide]",64,44 ± 11,30 ± 4,> 32,substantial loss of activity
O=C1/C(=C/c2cc(O)c(O)c(O)c2)Oc2cc(O)ccc21 [APY-013],32,16.5,16.7,19,–
O=C(c1cc(O)c(O)c(O)c1)c1cc2c(ccc3ccccc32)o1 [APY-071],16,0.15,0.3,6,–

# The next lines start with results.
MIC [1] [µg/mL],Ki [3] [µM],IC50 [4] [µM],SMILES,IC50 [2] [µg/mL],"In vitro inhibitory activity, SAR statement (in words) [4]"
8,3.9 ± 0.5,2.8 ± 0.2,"O=C(c1cc(O)c(O)c(O)c1)c1cc2cc(-c3ccc(C(F)(F)F)nc3)ccc2o1 [APY-097, 5-({5-[6-(Trifluoromethyl)pyridin-3-yl]-1-benzofuran-2-yl}carbonyl)benzene-1,2,3-triol]",5.4 ± 0.6,–
32,8,7.3,COc1cccc(/C=N/NC(=O)c2cc(O)c(O)c(O)c2)c1O [Compound 2],34,–
8,0.49 ± 0.03,4.8 ± 0.5,"CCN(CC)CCNC(=O)c1ccc2oc(C(=O)c3cc(O)c(O)c(O)c3)cc2c1 [NED-2019, N-(2-(diethylamino)ethyl)-2-(3,4,5-trihydroxybenzoyl)-benzofuran-5-carboxamide]",> 64,–
8,4.5 ± 0.9,2.4 ± 0.4,"CCN(CC)C(=O)c1ccc(-c2ccc3oc(C(=O)c4cc(O)c(O)c(O)c4)cc3c2)cc1 [APY-091, N,N-Diethyl-4-{2-[(3,4,5-trihydroxyphenyl)carbonyl]-1-benzofuran-5-yl}benzamide]",5.35 ± 0.05,–
16,0.62 ± 0.03,9 ± 4,"CN(C)CCNC(=O)c1ccc2oc(C(=O)c3cc(O)c(O)c(O)c3)cc2c1 [NED-2018, N-(2-(dimethylamino)ethyl)-2-(3,4,5-trihydroxybenzoyl)-benzofuran-5-carboxamide]",> 128,–
32,1.7,2.7 ± 0.5,"O=C(N/N=C/c1ccc(-c2ccc(Br)cc2)o1)c1cc(O)c(O)c(O)c1 [NED-2038, (E)-N′-((5-(4-bromophenyl)furan-2-yl)methylene)-3,4,5-trihydroxybenzohydrazide]",1.1,–
